Source: patent publication US9694073B2, “Small molecule inhibitors of polynucleotide kinase/phosphatase, poly(ADP-ribose) polymerase and uses thereof” (THE GOVERNORS OF THE UNIVERSITY OF ALBERTA, priority 2009, dated 2017)
“Also recorded” adds a separate entry of the source.

What was measured:
[1] = target: human PNKP phosphatase activity (Homo sapiens, UniProt Q96T60); assay: PiColorlock Gold assay for 3'-phosphatase activity (release of inorganic phosphate)
[2] = target: T1, Phage T4 polynucleotide kinase (T4 PNK) (Enterobacteria phage T4, UniProt P06855); assay: PiColorLock 3'-phosphatase assay, phage T4 PNK; assay type: biochemical, bacteriophage T4
T1 construct: purchased Roche Diagnostics (Indianapolis, Ind.)
From the text: To determine the specificity of A12B4C3 for human PNKP phosphatase activity, a number of closely related phosphatases such as the PNKP enzymes isolated from bacteriophage T4, Schizosaccharomyces pombe and mouse, as well as aprataxin, were examined.

[3] = test system: M059J cells (DNA-PKcs negative); assay type: cell-based, human
[4] = target: T2, human PNKP kinase activity (Homo sapiens, UniProt Q96T60); assay: DNA kinase assay; assay type: biochemical
T2 construct: made in house; host or cells: bacteria (said only for the batch compared with aprataxin)
Protocol: Reaction mixtures (20 μl) containing kinase buffer (80 mM succinic acid (pH 5.5), 10 mM MgCl2, and 1 mM DTT), 100 μM 20-mer oligonucleotide substrate, 3.3 pmol of [γ-32P]ATP, A12B4C3 (0-50 μM) in 2 μl DMSO, and 1 μg of PNK were incubated at 37° C. for 20 minutes. The reaction was stopped by addition of an equal volume of DNA loading dye (90% formamide, 0.02% bromophenol blue, 0.02% xylene cyanol in 1×TBE). Samples were boiled for 5 minutes and the products separated on a 12% polyacrylamide/8 M urea gel. Gels were scanned with a Typhoon 9400 Variable Mode Imager (GE Healthcare), and quantified using Image Quant 5.2 Software (GE Healthcare).
The effect of A12B4C3 on the kinase activity of human PNKP was examined by quantifying the transfer of ^32P-labeled phosphate from radiolabeled ATP to an oligonucleotide. […] However, the inhibition of the kinase and phosphatase activities cannot be directly compared because the standard assay for kinase activity uses ten-fold more enzyme than the assay for phosphatase activity

[5] = target: T3, human PNKP (hPNKP) 3'-phosphatase activity (Homo sapiens, UniProt Q96T60); assay: Fluorescence quenching-based screening assay for PNKP 3'-phosphatase activity; assay type: biochemical; details: 100 μM compound, 50 ng hPNKP
T3 construct: made in house; host or cells: bacteria (said only for the batch compared with aprataxin)
Protocol: The […] assay developed originally for protein kinases by QTL Biosystems (Santa Fe, N. Mex.) was modified. […] The TAMRA-labelled oligonucleotide lacking a 3'-phosphate served as a control. […] The assay was performed in 384-well white Optiplate microplates (PerkinElmer, Woodbridge, ON) in 70 mM Tris-HCl, pH 7.4, 60 mM MgCl2, 5 mM MnCl2, 0.3% BSA, 0.09% sodium azide. Reaction buffer was prepared by adding 1 mM DTT immediately prior to use. Five μL of 3'-phosphatase substrate (final concentration 0.5 μM) was used per well. In duplicate, 10 μl of each concentration of hPNKP was added per well. Plates were incubated for 1 hour at 37° C. and then 15 μl of 1× sensor solution (provided by QTL) was added to each well and incubated for 30 minutes at room temperature. Fluorescence (485 nm excitation and 520 nm emission wavelengths) of each well was read in a FLUOstar Optima® (BMG Labtech Inc, Durham, N.C.). Data were analyzed using GraphPad Prism® Software (San Diego, Calif.). […] Small molecules were provided in powder form and were dissolved in 100% DMSO and a final concentration of 100 μM was added to each well and assays were performed as described above. After obtaining an optimum calibration curve and enzyme concentration curve, a simplified form of the assay to test the library in a short time, was employed. One concentration of hPNKP, 50 ng, was tested and compared with the control well with no enzyme. The assay was conducted in the same way as described above with respect to oligonucleotides, buffer, controls, incubation lengths/temperatures, centrifugations and sensor addition. The fluorescence-based phosphatase assay adapted was originally developed to monitor protein phosphatase activity (34). This assay involves a fluorescent sensor molecule coated in trivalent metal cations which causes superquenching of the sensor signal when in close proximity to a dye (TAMRA) on the substrate. The sensor is brought close to TAMRA via the ionic bond formed between the terminal DNA phosphate and the trivalent metal cations on the sensor. Removal of the phosphate leads to an elevation of fluorescence because the sensor is not brought close enough to TAMRA for its signal to be quenched. […] Heat inactivated hPNKP was used as a control.

aprataxin (APTX) = target: T4, aprataxin (APTX) (Homo sapiens, UniProt Q7Z2E3); assay: 3'-DNA phosphatase activity of aprataxin; assay type: biochemical; details: 50 μM
T4 construct: made in house; host or cells: E. coli BL21-Gold (DE3), QIAgene expression construct (Qiagen)
Protocol: Human recombinant aprataxin (APTX) protein with an N-terminal 6× His tag was expressed in BL21-Gold (DE3) E. coli competent cells (Stratagene, La Jolla, Calif.) using the QIAgene expression construct (Qiagen, Mississauga, ON). A single colony of kanamycin resistant E. coli was used to inoculate a 200-ml overnight culture (e.g., about 12 to about 16 hours in Luria-Bertani (LB) media containing 30 μg/ml kanamycin. Four 50-ml fractions of overnight culture were then subcultured into 4×1 L LB without kanamycin. Once the culture reached an optical density of ˜0.6 at 600 nm, protein expression was induced using 0.2 mM isopropyl-1-thio-β-galactopyranoside (Sigma, St Louis, Mo.) at 37° C. for 2 hours. Cells were harvested by centrifugation at 10,000 rpm for 10 minutes at 4° C. and resuspended in 40 ml buffer (50 mM NaH2PO4, 250 mM NaCl, 1 mM PMSF, at pH 7.9). The solution was then stirred on ice for 30 minutes in the presence of 30 mg lysozyme and 4 mg PMSF, 1 μg/ml each of pepstatin and leupeptin. […] His-APTX concentration was then determined using the Bio-Rad Protein assay (Bio-Rad, Mississauga, ON).
It was also tested whether A12B4C3 could inhibit aprataxin, which is another human DNA 3′-phosphatase. For this experiment, the oligonucleotide substrate was incubated with equal quantities of the two enzymes that were purified from bacteria on the same day. […]

T1 sequence (P06855 whole entry): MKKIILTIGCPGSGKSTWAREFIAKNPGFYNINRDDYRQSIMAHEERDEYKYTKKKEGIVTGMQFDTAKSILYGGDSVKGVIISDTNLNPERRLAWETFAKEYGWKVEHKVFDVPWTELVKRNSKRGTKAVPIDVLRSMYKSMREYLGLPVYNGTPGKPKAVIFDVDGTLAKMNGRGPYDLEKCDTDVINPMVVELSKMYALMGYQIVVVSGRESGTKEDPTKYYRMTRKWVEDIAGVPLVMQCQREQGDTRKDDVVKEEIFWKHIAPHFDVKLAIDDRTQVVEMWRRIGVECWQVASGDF
T4 sequence (Q7Z2E3 whole entry): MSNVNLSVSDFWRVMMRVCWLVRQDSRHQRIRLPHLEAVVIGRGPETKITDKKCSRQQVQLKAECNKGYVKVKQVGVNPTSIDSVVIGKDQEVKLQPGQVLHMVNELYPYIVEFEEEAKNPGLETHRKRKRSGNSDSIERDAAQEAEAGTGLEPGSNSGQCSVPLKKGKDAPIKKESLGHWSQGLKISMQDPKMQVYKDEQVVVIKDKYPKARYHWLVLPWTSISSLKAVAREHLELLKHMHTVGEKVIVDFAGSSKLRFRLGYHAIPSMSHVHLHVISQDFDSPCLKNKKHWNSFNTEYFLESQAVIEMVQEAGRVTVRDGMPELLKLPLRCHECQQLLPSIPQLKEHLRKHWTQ

Question: Which results are given for `CCCCCCCCCCC(O)C1C=CC2C(=O)N(c3ccccc3)C(=O)C2N1Nc1ccc([N+](=O)[O-])cc1` (stereo not shown) [Compound A12B4C3, 2-(1-hydroxyundecyl)-1-(4-nitrophenylamino)-6-phenyl-6,7a-dihydro-1H-pyrrolo[3,4-b]pyridine-5,7(2H,4aH)-dione]?
Answer: concentration giving near maximal inhibition ([1]; PiColorLock Gold): 5 µM; potency rank among the five PNKP inhibitors ([1]; PiColorLock Gold, FIG. 4B): most potent; inhibition at 50 µM ([1]; read-out: inhibition of human PNKP): ~85%; inhibition of phage T4 PNKP ([2]; 50 μM): failed to inhibit; inhibition at 50 µM ([2]; read-out: inhibition of phage T4 PNKP): ~12.5%; synthetic lethality in M059J cells [3]: no synthetic lethality is seen; inhibition at 1 µM ([4]; 1 μM): ~16%; reduction of human PNKP kinase activity ([4]; 50 μM): ~30%; inhibition of hPNKP phosphatase activity (substrate dephosphorylation) in the screening assay [5]: significant inhibition; also recorded: marked inhibition; inhibition of aprataxin phosphatase activity (aprataxin (APTX)): refractory
